16 compounds from patent US10633366B2, “Antibacterial compounds” (AZIENDE CHIMICHE RIUNITE ANGELINI FRANCESCO A.C.R.A.F. …, priority 2016, dated 2020) can be followed below.

Where two headings read alike, the source gives them in different places. Bounds are passed on as bounds.

Test in all cases: biochemical
One test concerns the target E. coli Topoisomerase IV (Escherichia coli, UniProt P0AFI2+P20083). The following applies: for IC50: IC50 Topo IV; for inhibition at 50 µM: read-out: % inhibition Topo IV.
Another test addresses E. coli DNA gyrase (Escherichia coli, UniProt P0AES4+P0AES6). Particulars: for IC50: IC50 DNA gyrase; for inhibition at 50 µM: read-out: % inhibition DNA gyrase.
The target in the next test is S. aureus DNA gyrase (Staphylococcus aureus, UniProt P0A0K8+P20831). Particulars: for IC50: IC50 DNA gyrase; for inhibition at 50 µM: read-out: % inhibition DNA gyrase.
The target in test [1] is S. aureus Topoisomerase IV (Staphylococcus aureus, UniProt P0C1S7+P0C1U9). Particulars: for inhibition at 50 µM: read-out: % inhibition Topo IV.
[2] abbreviates: S. aureus, compound conc. 50 μM, percent of inhibition versus positive control, n/a = not active.

Sequence of S. aureus DNA gyrase (P0A0K8 whole entry): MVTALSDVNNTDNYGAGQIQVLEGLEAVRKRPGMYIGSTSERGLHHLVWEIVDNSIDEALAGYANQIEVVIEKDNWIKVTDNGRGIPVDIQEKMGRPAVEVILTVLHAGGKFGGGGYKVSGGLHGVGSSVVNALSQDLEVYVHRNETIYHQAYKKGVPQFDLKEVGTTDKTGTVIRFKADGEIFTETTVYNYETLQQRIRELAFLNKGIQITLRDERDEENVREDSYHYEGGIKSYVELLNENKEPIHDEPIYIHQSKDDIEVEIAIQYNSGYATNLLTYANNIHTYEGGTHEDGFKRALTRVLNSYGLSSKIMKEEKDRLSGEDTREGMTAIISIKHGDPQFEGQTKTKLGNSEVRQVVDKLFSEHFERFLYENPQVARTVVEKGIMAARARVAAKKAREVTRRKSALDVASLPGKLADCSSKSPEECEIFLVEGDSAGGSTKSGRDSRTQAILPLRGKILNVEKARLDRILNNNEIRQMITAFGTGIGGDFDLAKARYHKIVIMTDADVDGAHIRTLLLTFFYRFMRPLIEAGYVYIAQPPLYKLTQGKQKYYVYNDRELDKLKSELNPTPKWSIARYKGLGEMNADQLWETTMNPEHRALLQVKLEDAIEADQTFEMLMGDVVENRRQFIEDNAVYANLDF
Sequence of S. aureus DNA gyrase (P20831 whole entry): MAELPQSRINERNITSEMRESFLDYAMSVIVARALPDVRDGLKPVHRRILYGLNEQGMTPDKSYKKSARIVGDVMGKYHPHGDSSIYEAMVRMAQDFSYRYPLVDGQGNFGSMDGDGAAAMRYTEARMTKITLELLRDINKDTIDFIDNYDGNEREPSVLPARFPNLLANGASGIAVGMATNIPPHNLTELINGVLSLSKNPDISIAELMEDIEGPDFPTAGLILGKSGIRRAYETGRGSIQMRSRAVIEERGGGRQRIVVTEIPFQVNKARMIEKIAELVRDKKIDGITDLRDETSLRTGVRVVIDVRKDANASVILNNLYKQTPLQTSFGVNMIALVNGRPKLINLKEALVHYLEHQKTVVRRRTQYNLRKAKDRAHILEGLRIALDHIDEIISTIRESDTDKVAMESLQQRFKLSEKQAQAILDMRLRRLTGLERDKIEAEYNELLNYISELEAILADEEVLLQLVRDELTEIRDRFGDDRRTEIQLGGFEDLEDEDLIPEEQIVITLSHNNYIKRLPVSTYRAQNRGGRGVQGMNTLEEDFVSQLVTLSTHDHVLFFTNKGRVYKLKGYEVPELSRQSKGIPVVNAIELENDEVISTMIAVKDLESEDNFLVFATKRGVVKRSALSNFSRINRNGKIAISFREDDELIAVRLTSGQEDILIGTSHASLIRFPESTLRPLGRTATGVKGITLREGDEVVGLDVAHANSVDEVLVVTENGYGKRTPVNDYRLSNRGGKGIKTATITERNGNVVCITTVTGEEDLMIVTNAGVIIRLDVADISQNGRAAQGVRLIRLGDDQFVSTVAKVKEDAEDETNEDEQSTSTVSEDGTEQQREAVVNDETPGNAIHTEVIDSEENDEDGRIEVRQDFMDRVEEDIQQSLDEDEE
Sequence of E. coli Topoisomerase IV (P0AFI2 whole entry): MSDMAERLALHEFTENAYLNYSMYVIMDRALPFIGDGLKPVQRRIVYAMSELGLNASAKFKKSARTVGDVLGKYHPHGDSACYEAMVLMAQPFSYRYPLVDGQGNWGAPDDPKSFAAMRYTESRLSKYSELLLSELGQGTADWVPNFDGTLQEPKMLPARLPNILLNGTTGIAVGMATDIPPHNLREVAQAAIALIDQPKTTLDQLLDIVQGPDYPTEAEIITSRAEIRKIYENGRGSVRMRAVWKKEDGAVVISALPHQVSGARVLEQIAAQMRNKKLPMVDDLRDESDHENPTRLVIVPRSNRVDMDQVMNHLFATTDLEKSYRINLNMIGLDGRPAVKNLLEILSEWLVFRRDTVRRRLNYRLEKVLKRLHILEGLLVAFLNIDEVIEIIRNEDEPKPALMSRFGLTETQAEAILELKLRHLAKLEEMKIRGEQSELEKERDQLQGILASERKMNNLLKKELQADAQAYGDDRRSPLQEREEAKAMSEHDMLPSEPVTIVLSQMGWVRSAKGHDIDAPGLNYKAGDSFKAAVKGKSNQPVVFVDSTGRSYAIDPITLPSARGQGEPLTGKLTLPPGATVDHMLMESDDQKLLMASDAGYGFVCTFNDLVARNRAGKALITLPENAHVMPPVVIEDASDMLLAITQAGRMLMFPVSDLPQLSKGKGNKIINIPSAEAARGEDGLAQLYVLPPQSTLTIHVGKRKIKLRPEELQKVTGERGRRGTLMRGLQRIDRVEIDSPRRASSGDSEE
Sequence of E. coli Topoisomerase IV (P20083 whole entry): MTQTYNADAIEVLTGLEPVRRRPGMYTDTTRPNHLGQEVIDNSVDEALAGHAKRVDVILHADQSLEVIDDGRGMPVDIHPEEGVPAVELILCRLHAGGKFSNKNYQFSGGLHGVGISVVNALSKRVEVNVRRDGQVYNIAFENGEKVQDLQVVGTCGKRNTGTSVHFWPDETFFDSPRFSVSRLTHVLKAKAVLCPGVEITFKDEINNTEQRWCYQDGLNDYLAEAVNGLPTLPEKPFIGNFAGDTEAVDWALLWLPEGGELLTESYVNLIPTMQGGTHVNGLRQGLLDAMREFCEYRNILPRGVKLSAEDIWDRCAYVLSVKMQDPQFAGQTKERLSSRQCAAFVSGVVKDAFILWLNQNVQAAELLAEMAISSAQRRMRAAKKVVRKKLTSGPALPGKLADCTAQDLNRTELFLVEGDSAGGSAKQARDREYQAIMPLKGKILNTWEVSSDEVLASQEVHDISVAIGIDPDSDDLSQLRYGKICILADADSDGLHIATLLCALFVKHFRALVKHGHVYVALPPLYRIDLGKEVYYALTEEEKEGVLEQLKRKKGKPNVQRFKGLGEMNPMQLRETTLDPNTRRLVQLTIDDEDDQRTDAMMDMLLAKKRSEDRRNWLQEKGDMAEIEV
Sequence of E. coli DNA gyrase (P0AES4 whole entry, one chain of several): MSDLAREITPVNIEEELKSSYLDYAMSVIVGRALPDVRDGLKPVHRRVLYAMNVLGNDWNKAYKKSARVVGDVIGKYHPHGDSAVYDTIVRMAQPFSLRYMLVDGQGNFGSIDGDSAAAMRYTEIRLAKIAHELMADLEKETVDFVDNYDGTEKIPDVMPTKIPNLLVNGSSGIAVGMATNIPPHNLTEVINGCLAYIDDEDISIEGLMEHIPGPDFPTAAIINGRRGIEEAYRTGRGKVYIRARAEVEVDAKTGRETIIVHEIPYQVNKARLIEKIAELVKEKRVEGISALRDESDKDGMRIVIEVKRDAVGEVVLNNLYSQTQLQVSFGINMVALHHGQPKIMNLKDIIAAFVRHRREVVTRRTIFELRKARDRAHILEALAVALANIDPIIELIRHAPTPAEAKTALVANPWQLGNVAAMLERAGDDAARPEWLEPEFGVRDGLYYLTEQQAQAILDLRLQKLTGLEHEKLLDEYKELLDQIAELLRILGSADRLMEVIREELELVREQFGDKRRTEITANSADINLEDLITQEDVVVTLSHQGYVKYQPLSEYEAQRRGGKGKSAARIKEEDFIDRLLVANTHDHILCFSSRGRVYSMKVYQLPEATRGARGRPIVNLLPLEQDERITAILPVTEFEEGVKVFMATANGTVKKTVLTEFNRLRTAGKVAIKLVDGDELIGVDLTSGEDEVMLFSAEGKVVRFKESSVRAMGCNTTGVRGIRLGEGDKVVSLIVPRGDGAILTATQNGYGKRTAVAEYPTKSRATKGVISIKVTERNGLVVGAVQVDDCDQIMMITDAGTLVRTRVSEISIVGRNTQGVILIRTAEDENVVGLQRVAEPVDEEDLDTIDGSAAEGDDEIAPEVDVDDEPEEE

With `O=C1COc2ncc(F)cc2N1[C@H]1CC[C@](CO)(NCc2cc3c(=O)oc4ccc(F)cc4c3[nH]2)CC1` [Compound 220, 8-fluoro-2-({[trans-4-(7-fluoro-2-oxo-2,3-dihydro-1H-pyrido[2,3-b][1,4]oxazin-1-yl)-1-(hydroxymethyl)cyclohexyl]amino}methyl)[1]benzopyrano[4,3-b]pyrrol-4(1H)-one], the IC50 against E. coli Topoisomerase IV worked out at 740 nM; on E. coli DNA gyrase it was 680 nM; on S. aureus DNA gyrase it was 1970 nM; in test [1] (IC50 Topo IV), 2910 nM. Besides, the inhibition at 50 µM worked out at 50% on E. coli Topoisomerase IV, 100% on E. coli DNA gyrase, 100% at S. aureus DNA gyrase and 100% in test [1] (setting [2]).

On to `O=C1COc2ncc(F)cc2N1[C@H]1CC[C@H](NCCNc2cc(=O)oc3ccc(F)cc23)CC1` [Compound 354, 7-fluoro-1-[trans-4-({2-[(6-fluoro-2-oxo-2H-1-benzopyran-4-yl)amino]ethyl}amino)cyclohexyl]-1H-pyrido[2,3-b][1,4]oxazin-2(3H)-one], for which the IC50 amounted to 180 nM against E. coli Topoisomerase IV, 470 nM against E. coli DNA gyrase, 350 nM at S. aureus DNA gyrase and 920 nM in test [1] (IC50 Topo IV).

Regarding `O=C1COc2ncc(F)cc2N1C1CCN(CC(O)CNc2cc(=O)oc3ccc(F)cc23)CC1` (centres unmarked) [Compound 303, 7-fluoro-1-(1-{3-[(6-fluoro-2-oxo-2H-1-benzopyran-4-yl)amino]-2-hydroxypropyl}piperidin-4-yl)-1H-pyrido[2,3-b][1,4]oxazin-2(3H)-one], the IC50 was 620 nM at E. coli Topoisomerase IV, 2670 nM at E. coli DNA gyrase, 9920 nM against S. aureus DNA gyrase and above 100000 nM in test [1] (IC50 Topo IV).

Regarding `O=c1oc2ccc(F)cc2c2[nH]c(CN[C@H]3CC[C@@H](n4c(=O)cnc5ncc(F)cc54)CC3)cc12` [Compound 210, 8-fluoro-2-({[cis-4-(7-fluoro-2-oxopyrido[2,3-b]pyrazin-1(2H)-yl)cyclohexyl]amino}methyl)[1]benzopyrano[4,3-b]pyrrol-4(1H)-one], the IC50 came to 13800 nM on E. coli Topoisomerase IV, 440 nM against E. coli DNA gyrase, 1300 nM on S. aureus DNA gyrase and 1310 nM in test [1] (IC50 Topo IV). Further, the inhibition at 50 µM stood at 86% on E. coli Topoisomerase IV, 92% at E. coli DNA gyrase, 100% at S. aureus DNA gyrase and 84% in test [1] (setting [2]).

For `COc1cnc2ccc(=O)n([C@H]3CC[C@H](NCc4cc5c(=O)oc6ccc(F)cc6c5[nH]4)CC3)c2c1` [Compound 204, 8-fluoro-2-({[trans-4-(7-methoxy-2-oxo-1,5-naphthyridin-1(2H)-yl)cyclohexyl]amino}methyl)[1]benzopyrano[4,3-b]pyrrol-4(1H)-one], the IC50 on E. coli Topoisomerase IV was below 100 nM; against E. coli DNA gyrase it was 50 nM; against S. aureus DNA gyrase it was 640 nM; in test [1] (IC50 Topo IV), below 100 nM. In addition, the inhibition at 50 µM (at E. coli Topoisomerase IV; at E. coli DNA gyrase; at S. aureus DNA gyrase; in test [1] (setting [2])) was 100% throughout.

Turning to `O=c1oc2ccccc2c2[nH]c(CNCC3CCN(c4nccc5ccc(F)cc45)C3)cc12` (single isomer, unassigned) [Compound 180, 2-[({[1-(7-fluoroisoquinolin-1-yl)pyrrolidin-3-yl]methyl}amino)methyl][1]benzopyrano[4,3-b]pyrrol-4(1H)-one], the “% inhibition Topo IV” value at E. coli Topoisomerase IV was 57%. Besides, the IC50 is 3780 nM against E. coli Topoisomerase IV, 480 nM against E. coli DNA gyrase, 1700 nM against S. aureus DNA gyrase and 110 nM in test [1] (IC50 Topo IV). The inhibition at 50 µM on E. coli DNA gyrase came to 58%; on S. aureus DNA gyrase it was 90%; in test [1] (setting [2]), 50%.

In the case of `COc1ccc2ccc(=O)n([C@H]3CC[C@H](NCc4cc5c(=O)oc6ccc(F)cc6c5[nH]4)CC3)c2c1` [Compound 219, 8-fluoro-2-({[trans-4-(7-methoxy-2-oxoquinolin-1(2H)-yl)cyclohexyl]amino}methyl)[1]benzopyrano[4,3-b]pyrrol-4(1H)-one], the IC50 came out at 220 nM against E. coli Topoisomerase IV, 220 nM on E. coli DNA gyrase, 220 nM against S. aureus DNA gyrase and 650 nM in test [1] (IC50 Topo IV). The inhibition at 50 µM (at E. coli Topoisomerase IV; on E. coli DNA gyrase; on S. aureus DNA gyrase; in test [1] (setting [2])) was 100% each time.

With `COc1cnc2ccc(=O)n(C3CCN(CCc4cc5c(=O)oc6ccc(F)cc6c5[nH]4)CC3)c2n1` [Compound 200], the IC50 against E. coli Topoisomerase IV is below 100 nM; against E. coli DNA gyrase it was 40 nM; at S. aureus DNA gyrase, below 100 nM; in test [1] (IC50 Topo IV) it was below 100 nM. Also, the inhibition at 50 µM on E. coli Topoisomerase IV worked out at 100%; on E. coli DNA gyrase, 90%; at S. aureus DNA gyrase it was 100%; in test [1] it was 100%.

For `COc1cnc2c(c1)N([C@H]1CC[C@H](NCc3cc4c(=O)oc5ccc(F)cc5c4[nH]3)CC1)C(=O)CO2` [Compound 302, 8-fluoro-2-({[trans-4-(7-methoxy-2-oxo-2,3-dihydro-1H-pyrido[2,3-b][1,4]oxazin-1-yl)cyclohexyl]amino}methyl)[1]benzopyrano[4,3-b]pyrrol-4(1H)-one], the IC50 on E. coli Topoisomerase IV worked out at 120 nM; at E. coli DNA gyrase, 590 nM; on S. aureus DNA gyrase it was 580 nM; in test [1] (S. aureus, Table 4, eight half-log concentrations ranging from 0.1 to 300 μM, read-out: IC50 Topo IV) it was 3260 nM.

For `COc1ccc2ncc(=O)n([C@H]3CC[C@H](NCc4cc5c(=O)oc6ccc(F)cc6c5[nH]4)CC3)c2c1` [Compound 208, 8-fluoro-2-({[trans-4-(7-methoxy-2-oxoquinoxalin-1(2H)-yl)cyclohexyl]amino}methyl)[1]benzopyrano[4,3-b]pyrrol-4(1H)-one], the IC50 on E. coli Topoisomerase IV came to 270 nM; at E. coli DNA gyrase it was 80 nM; against S. aureus DNA gyrase, 110 nM; in test [1] (IC50 Topo IV), 130 nM. In addition, the inhibition at 50 µM (at E. coli Topoisomerase IV; on E. coli DNA gyrase; at S. aureus DNA gyrase; in test [1] (setting [2])) was 100% each time.

On to `N#Cc1ccc2ccc(=O)n([C@H]3CC[C@H](NCc4cc5c(=O)oc6ccc(F)cc6c5[nH]4)CC3)c2c1` [Compound 206, 1-(trans-4-{[(8-fluoro-4-oxo-1,4-dihydro[1]benzopyrano[4,3-b]pyrrol-2-yl)methyl]amino}cyclohexyl)-2-oxo-1,2-dihydroquinoline-7-carbonitrile], for which the IC50 is below 100 nM against E. coli Topoisomerase IV, 50 nM against E. coli DNA gyrase, 130 nM against S. aureus DNA gyrase and below 100 nM in test [1] (IC50 Topo IV). Also, the inhibition at 50 µM (on E. coli Topoisomerase IV; on E. coli DNA gyrase; at S. aureus DNA gyrase; in test [1] (setting [2])) was 100% in each case.

`O=C1COc2ncc(F)cc2N1[C@H]1CC[C@H](NCc2cc3c(=O)oc4cccnc4c3[nH]2)CC1` [Compound 301]: the IC50 against E. coli Topoisomerase IV was 430 nM; against E. coli DNA gyrase, 460 nM; against S. aureus DNA gyrase, 720 nM; in test [1] (IC50 Topo IV), 70300 nM.

As to `O=c1nc(NCC(O)CN2CCN(c3nccc4ccncc34)CC2)c2cc(F)ccc2o1` (centres unmarked) [Compound 157, 6-fluoro-4-({2-hydroxy-3-[4-(2,7-naphthyridin-1-yl)piperazin-1-yl]propyl}amino)-2H-1,3-benzoxazin-2-one], the IC50 on E. coli Topoisomerase IV was determined as 640 nM; on E. coli DNA gyrase it was 2340 nM; at S. aureus DNA gyrase, 2480 nM; in test [1] (S. aureus, Table 3, eight half-log concentrations ranging from 0.1 to 300 μM, read-out: IC50 Topo IV) it was 1020 nM. Besides, the inhibition at 50 µM on E. coli Topoisomerase IV was 100%; on E. coli DNA gyrase, 83%; at S. aureus DNA gyrase it was 89%; in test [1] it was 100%.

For `COc1ccc2ncc(=O)n(C3CCN(CCc4cc5c(=O)oc6ccc(F)cc6c5[nH]4)CC3)c2n1` [Compound 197, 8-fluoro-2-{2-[4-(6-methoxy-3-oxopyrido[2,3-b]pyrazin-4(3H)-yl)piperidin-1-yl]ethyl}[1]benzopyrano[4,3-b]pyrrol-4(1H)-one], the inhibition at 50 µM at E. coli Topoisomerase IV was 63%; at E. coli DNA gyrase, 87%; on S. aureus DNA gyrase it was 90%; in test [1], 79%.

Turning to `NC(=O)[C@]1(NCc2cc3c(=O)oc4ccc(F)cc4c3[nH]2)CC[C@H](N2C(=O)COc3ncc(F)cc32)CC1` [Compound 217, Trans-1-{[(8-fluoro-4-oxo-1,4-dihydro[1]benzopyrano[4,3-b]pyrrol-2-yl)methyl]amino}-4-(7-fluoro-2-oxo-2,3-dihydro-1H-pyrido[2,3-b][1,4]oxazin-1-yl)cyclohexane-1-carboxamide], the IC50 against E. coli Topoisomerase IV came out at 690 nM; against E. coli DNA gyrase it was 1450 nM; against S. aureus DNA gyrase, 2150 nM; in test [1] (IC50 Topo IV), 2720 nM. Also, the inhibition at 50 µM on E. coli Topoisomerase IV was 50%; at E. coli DNA gyrase it was 82%; at S. aureus DNA gyrase, 100%; in test [1] (setting [2]) it was 100%.

Regarding `O=C1COc2ncc(F)cc2N1[C@H]1CC[C@H](NCc2cc3ncc4c(c3[nH]2)OCCO4)CC1` [Compound 314, 1-[trans-4-{[(2,3-dihydro-9H-[1,4]dioxino[2,3-d]pyrrolo[3,2-b]pyridin-8-yl)methyl]amino}cyclohexyl]-7-fluoro-1H-pyrido [2,3-b][1,4]oxazin-2(3H)-one], the IC50 against E. coli Topoisomerase IV was 1140 nM; against E. coli DNA gyrase, 850 nM; on S. aureus DNA gyrase it was 7100 nM; in test [1] (IC50 Topo IV), above 100000 nM.
